Experimental data reported in patent US20220096376A1, “DRUG DELIVERY PLATFORM USING W/O/W-TYPE TRIOLEIN EMULSION PROMOTIVE OF BLOOD-BRAIN BARRIER OPENING” (PUSAN NATIONAL UNIVERSITY INDUSTRY-UNIVERSITY COOPERATION …, priority 2019, published 2022).
Several values for one entry are separate records, joined by “and”; a condition that tells them apart may be missing. Equal values may be shown once.

Experiment: Confirmation of drug delivery activity to brain (doxorubicin concentration by fluorometer)
Type: in vivo
Details: rabbit
Protocol: A triolein emulsion having a W/O/W double structure and an average particle diameter of 7 μm was prepared in the same manner as described above. After diluting by mixing 0.2 ml (2%) of the emulsion in 10 ml of physiological saline, 7 ml of the emulsion diluted in the same procedure as in the experiment in which the trypan blue was added to 1.7 kg male rabbits distributed from Semtako and doxorubicin, a water-soluble drug, were injected, and 2 hours later, the brain of the rabbit was excised and the concentration of doxorubicin was measured using a fluorometer. At this time, three brain tissues were taken off and measured three times.

[1] = 7 ml diluted W/O/W triolein emulsion and doxorubicin injected, 2 hours later, single measurements
[2] = with W/O/W triolein emulsion, 2 hours, Average

Doxorubicin concentration in the left brain (RFU) [2]: 73.56 RFU
Doxorubicin concentration in the right brain (RFU) [2]: 439.11 RFU
Right brain doxorubicin/left brain doxorubicin ratio [2]: 6.12
SMILES: COc1cccc2c1C(=O)c1c(O)c3c(c(O)c1C2=O)C[C@@](O)(C(=O)CO)C[C@@H]3O[C@H]1C[C@H](N)[C@H](O)[C@H](C)O1 [Doxorubicin, doxorubicin]
Doxorubicin concentration in the left brain (RFU) [1]: 64 RFU and 77 RFU and 89 RFU and 78 RFU and 65 RFU and 70 RFU and 53 RFU and 88 RFU
Doxorubicin concentration in the right brain (RFU) [1]: 420 RFU and 445 RFU and 431 RFU and 444 RFU and 455 RFU and 464 RFU and 437 RFU and 428 RFU
